Data: patent US12077503B2, “Substituted cyclic amides and their use as herbicides” (FMC CORPORATION, priority 2015, dated 2024)
Read-outs that look alike come from different tables or passages of the source.

Key:
Type in all cases: in vivo
[1] = test system: Kochia (Kochia scoparia); assay: Test A preemergence; conditions: Bassia scoparia, pre-emergence, 240 h, preemergence, read-out: Kochia plant response rating; for pest or weed control at 125 g/ha: 125 g ai/ha, approx. 10 d; for pest or weed control at 500 g/ha: 500 g ai/ha
In short: (§1)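 In a loam soil and sand blend, planted seeds got a preemergence directed soil spray, and young plants at the one- to two-leaf stage, 2–10 cm high, got a postemergence application; ~10 d greenhouse hold; injury rated visually, 0 = none, 100 = complete control.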

[2] = test system: barnyardgrass (Echinochloa crus-galli); assay: Test A preemergence; conditions: Echinochloa crus-galli, pre-emergence, 240 h, preemergence, read-out: Barnyardgrass plant response rating; for pest or weed control at 125 g/ha: 125 g ai/ha, 0 to 100 scale where 0 is no effect and 100 is complete control, approx. 10 d; for pest or weed control at 500 g/ha: 500 g ai/ha, visual injury rating about 10 d after treatment, 0 to 100 scale (0 no effect, 100 complete control)
In short: as §1

[3] = test system: giant foxtail (Setaria faberii); assay: Test A preemergence; conditions: Setaria faberi, pre-emergence, 240 h, preemergence, read-out: Foxtail, Giant plant response rating; for pest or weed control at 125 g/ha: 125 g ai/ha, approx. 10 d; for pest or weed control at 500 g/ha: 500 g ai/ha
In short: as §1

[4] = test system: pigweed (Amaranthus retroflexus); assay: Test A preemergence; conditions: Amaranthus retroflexus, pre-emergence, 240 h, preemergence, read-out: Pigweed plant response rating; for pest or weed control at 125 g/ha: 125 g ai/ha, approx. 10 d; for pest or weed control at 500 g/ha: 500 g ai/ha
[5] = test system: ragweed (common ragweed, Ambrosia elatior); assay: Test A preemergence; conditions: Ambrosia artemisiifolia, pre-emergence, 240 h, preemergence, read-out: Ragweed plant response rating; for pest or weed control at 125 g/ha: 125 g ai/ha, approx. 10 d; for pest or weed control at 500 g/ha: 500 g ai/ha
In short: as §1

[6] = test system: ryegrass, Italian (Italian ryegrass, Lolium multiflorum); assay: Test A preemergence; conditions: Lolium multiflorum, pre-emergence, 240 h, preemergence, read-out: Ryegrass, Italian plant response rating; for pest or weed control at 125 g/ha: 125 g ai/ha, approx. 10 d; for pest or weed control at 500 g/ha: 500 g ai/ha
In short: as §1

[7] = test system: Galium (catchweed bedstraw, Galium aparine); assay: Test A postemergence; conditions: Galium, post-emergence, 240 h, postemergence, read-out: Galium plant response rating; for pest or weed control at 125 g/ha: 125 g ai/ha, visual injury on 0 to 100 scale (0 no effect, 100 complete control), approx. 10 d; for pest or weed control at 500 g/ha: 500 g ai/ha, 0 to 100 scale, 0 is no effect, 100 is complete control
In short: as §1

[8] = test system: Kochia (Kochia scoparia); assay: Test A postemergence; conditions: Bassia scoparia, post-emergence, 240 h, postemergence, read-out: Kochia plant response rating; for pest or weed control at 125 g/ha: 125 g ai/ha, visual injury on 0 to 100 scale (0 no effect, 100 complete control), approx. 10 d; for pest or weed control at 500 g/ha: 500 g ai/ha, 0 to 100 scale, 0 is no effect, 100 is complete control
In short: as §1

[9] = test system: barnyardgrass (Echinochloa crus-galli); assay: Test A postemergence; conditions: Echinochloa crus-galli, post-emergence, 240 h, postemergence, read-out: Barnyardgrass plant response rating; for pest or weed control at 125 g/ha: 125 g ai/ha, visual injury on 0 to 100 scale (0 no effect, 100 complete control), approx. 10 d; for pest or weed control at 500 g/ha: 500 g ai/ha, 0 to 100 scale, 0 is no effect, 100 is complete control
In short: as §1

[10] = test system: corn (Zea mays); assay: Test A postemergence; conditions: Zea mays, post-emergence, 240 h, postemergence, read-out: Corn plant response rating; for plant injury at 125 g/ha: 125 g ai/ha, visual injury on 0 to 100 scale (0 no effect, 100 complete control), approx. 10 d; for plant injury at 500 g/ha: 500 g ai/ha, 0 to 100 scale, 0 is no effect, 100 is complete control
In short: as §1

[11] = test system: pigweed (Amaranthus retroflexus); assay: Test A postemergence; conditions: Amaranthus retroflexus, post-emergence, 240 h, postemergence, read-out: Pigweed plant response rating; for pest or weed control at 125 g/ha: 125 g ai/ha, visual injury on 0 to 100 scale (0 no effect, 100 complete control), approx. 10 d; for pest or weed control at 500 g/ha: 500 g ai/ha, 0 to 100 scale, 0 is no effect, 100 is complete control
In short: as §1

[12] = test system: barnyardgrass (Echinochloa crus-galli); assay: Test B flooded paddy test; conditions: Echinochloa crus-galli, 250 g ai/ha, Flood; 0 to 100 scale where 0 is no effect and 100 is complete control; read-out: Barnyardgrass plant response rating
In short: (§2)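 2-leaf plants; pots flooded 3 cm over soil; cpd added to paddy water; depth held; greenhouse 13–15 d; visual rating vs controls, 0 = no effect, 100 = complete control.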

[13] = test system: ducksalad (Heteranthera limosa); assay: Test B flooded paddy test; conditions: Heteranthera limosa, 250 g ai/ha, Flood; 0 to 100 scale where 0 is no effect and 100 is complete control; read-out: Ducksalad plant response rating
In short: as §2

[14] = test system: rice (Oryra sativa); assay: Test B flooded paddy test; conditions: Oryza sativa, 250 g ai/ha, Flood; 0 to 100 scale where 0 is no effect and 100 is complete control; read-out: Rice plant response rating
In short: as §2

[15] = test system: sedge, umbrella (small-flower umbrella sedge, Cyperus difformis); assay: Test B flooded paddy test; conditions: Cyperus difformis, 250 g ai/ha, Flood; 0 to 100 scale where 0 is no effect and 100 is complete control; read-out: Sedge, Umbrella plant response rating
In short: as §2

[16] = 0 to 100 scale where 0 is no effect and 100 is complete control
[17] = visual injury rating about 10 d after treatment, 0 to 100 scale (0 no effect, 100 complete control)

Cc1cc([C@H]2CN(C)C(=O)[C@@H]2C(=O)Nc2ccccc2F)ccc1Br [Compound 1098]
20%: pest or weed control at 125 g/ha [1, 16] | pest or weed control at 125 g/ha [6, 16] | pest or weed control at 125 g/ha [8]
70%: pest or weed control at 500 g/ha [1, 17] | plant injury at 500 g/ha [10]
40%: pest or weed control at 500 g/ha [7]
30%: pest or weed control at 125 g/ha [7]
60%: pest or weed control at 500 g/ha [8]
50%: pest or weed control at 500 g/ha [6, 17]
90%: pest or weed control at 125 g/ha [2] | pest or weed control at 500 g/ha [2] | pest or weed control at 125 g/ha [3, 16] | pest or weed control at 500 g/ha [3, 17] | pest or weed control at 500 g/ha [9] | pest or weed control at 250 g/ha [13]
80%: pest or weed control at 125 g/ha [9]
0%: pest or weed control at 125 g/ha [4, 16] | pest or weed control at 500 g/ha [4, 17] | pest or weed control at 125 g/ha [5, 16] | pest or weed control at 500 g/ha [5, 17] | plant injury at 125 g/ha [10] | pest or weed control at 125 g/ha [11] | pest or weed control at 500 g/ha [11] | pest or weed control at 250 g/ha [12] | pest or weed control at 250 g/ha [14] | pest or weed control at 250 g/ha [15]

Cc1cc([C@H]2CN(C)C(=O)[C@@H]2C(=O)Nc2cccc(F)c2F)ccc1Br [Compound 1099]
90%: pest or weed control at 125 g/ha [2] | pest or weed control at 500 g/ha [2] | pest or weed control at 125 g/ha [3, 16] | pest or weed control at 500 g/ha [3, 17]
70%: pest or weed control at 500 g/ha [1, 17] | pest or weed control at 500 g/ha [6, 17] | pest or weed control at 125 g/ha [9]
60%: pest or weed control at 125 g/ha [1, 16] | pest or weed control at 500 g/ha [5, 17] | pest or weed control at 500 g/ha [7] | pest or weed control at 500 g/ha [8] | plant injury at 500 g/ha [10]
50%: pest or weed control at 125 g/ha [6, 16] | pest or weed control at 125 g/ha [7] | plant injury at 125 g/ha [10] | pest or weed control at 500 g/ha [11]
30%: pest or weed control at 500 g/ha [4, 17] | pest or weed control at 125 g/ha [8]
0%: pest or weed control at 125 g/ha [4, 16] | pest or weed control at 250 g/ha [12] | pest or weed control at 250 g/ha [14] | pest or weed control at 250 g/ha [15]
20%: pest or weed control at 125 g/ha [5, 16] | pest or weed control at 125 g/ha [11]
100%: pest or weed control at 250 g/ha [13]
80%: pest or weed control at 500 g/ha [9]

O=C1NC[C@H](c2cscn2)[C@H]1C(=O)Nc1cccc(F)c1F [Compound 1111]
20%: pest or weed control at 500 g/ha [6, 16] | pest or weed control at 250 g/ha [12]
0%: pest or weed control at 125 g/ha [1, 16] | pest or weed control at 500 g/ha [1, 16] | pest or weed control at 125 g/ha [2] | pest or weed control at 500 g/ha [2] | pest or weed control at 125 g/ha [3, 16] | pest or weed control at 500 g/ha [3, 16] | pest or weed control at 125 g/ha [4, 16] | pest or weed control at 500 g/ha [4, 16] | pest or weed control at 125 g/ha [5, 16] | pest or weed control at 500 g/ha [5, 16] | pest or weed control at 125 g/ha [6, 16] | pest or weed control at 125 g/ha [7] | pest or weed control at 500 g/ha [7] | pest or weed control at 125 g/ha [8] | pest or weed control at 500 g/ha [8] | pest or weed control at 125 g/ha [9] | pest or weed control at 500 g/ha [9] | plant injury at 125 g/ha [10] | plant injury at 500 g/ha [10] | pest or weed control at 125 g/ha [11] | pest or weed control at 500 g/ha [11] | pest or weed control at 250 g/ha [14] | pest or weed control at 250 g/ha [15]
70%: pest or weed control at 250 g/ha [13]
